# Assay results as given in ChEMBL document CHEMBL1201861, “Genomics of Drug Sensitity in Cancer screening data, Wellcome Trust Sanger Institute”.
# Values joined by “and” are separate entries in the source; they are usually repeats but may differ in a detail not shown here. Equal entries are not always repeated.
# Key:
# Experiment in all cases: cells
# [1] = tested on: BB30-HNC; format: functional, cell-based, Homo sapiens;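 note: growth inhibition of the cultured cell line, read out by a cell viability assay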
# Description: SANGER: Inhibition of human BB30-HNC cell growth in a cell viability assay.
# [2] = tested on: COLO-680N; format: functional, cell-based, Homo sapiens;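 note: cell viability assay used to measure inhibition of COLO-680N cell growth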
# Description: SANGER: Inhibition of human COLO-680N cell growth in a cell viability assay.
# [3] = tested on: A204; format: functional, cell-based, Homo sapiens;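 note: growth inhibition of human A204 cells, read out with a cell viability assay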
# Description: SANGER: Inhibition of human A204 cell growth in a cell viability assay.
# [4] = tested on: DJM-1; format: functional, cell-based, Homo sapiens;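 note: growth inhibition of human DJM-1 cells, read out by a cell viability assay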
# Description: SANGER: Inhibition of human DJM-1 cell growth in a cell viability assay.
# [5] = tested on: SK-PN-DW; format: functional, cell-based; conditions: Homo sapiens;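 note: growth inhibition measured with a viability assay on these cells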
# Description: SANGER: Inhibition of human SK-PN-DW cell growth in a cell viability assay.
# [6] = tested on: BPH-1; format: functional, cell-based, Homo sapiens;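 note: cell viability assay measuring growth inhibition of human BPH-1 cells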
# Description: SANGER: Inhibition of human BPH-1 cell growth in a cell viability assay.
# [7] = tested on: NCI-H1623; format: functional, cell-based, Homo sapiens;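 note: cell viability assay used as the read-out for growth inhibition of NCI-H1623 cells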
# Description: SANGER: Inhibition of human NCI-H1623 cell growth in a cell viability assay.
# [8] = tested on: HT-29; format: functional, cell-based, Homo sapiens;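 note: growth inhibition of human HT-29 cells, read out by a cell viability assay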
# Description: SANGER: Inhibition of human HT-29 cell growth in a cell viability assay.
# [9] = tested on: Calu-6; format: functional, cell-based, Homo sapiens;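 note: growth of human Calu-6 cells, read out by a cell viability assay, IC50 marking inhibition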
# Description: SANGER: Inhibition of human Calu-6 cell growth in a cell viability assay.
# [10] = tested on: RPMI-8866; format: functional, cell-based; conditions: Homo sapiens
# Description: SANGER: Inhibition of human RPMI-8866 cell growth in a cell viability assay.
# [11] = tested on: LN-405; format: functional, cell-based, Homo sapiens
# Description: SANGER: Inhibition of human LN-405 cell growth in a cell viability assay.
# [12] = tested on: GAK; format: functional, cell-based, Homo sapiens;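 note: cell growth inhibition read out by a cell viability assay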
# Description: SANGER: Inhibition of human GAK cell growth in a cell viability assay.
# [13] = tested on: COR-L88; format: functional, cell-based; conditions: Homo sapiens;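 note: growth inhibition of COR-L88 cells, read out with a cell viability assay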
# Description: SANGER: Inhibition of human COR-L88 cell growth in a cell viability assay.
# [14] = tested on: NCI-H2122; format: functional, cell-based, Homo sapiens;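 note: growth inhibition of the cells, read out with a cell viability assay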
# Description: SANGER: Inhibition of human NCI-H2122 cell growth in a cell viability assay.
# [15] = tested on: TE-9; format: functional, cell-based, Homo sapiens;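 note: cell growth inhibition, measured with a cell viability readout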
# Description: SANGER: Inhibition of human TE-9 cell growth in a cell viability assay.
# [16] = tested on: LAMA-84; format: functional, cell-based; conditions: Homo sapiens;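 note: growth inhibition of LAMA-84 cells, read out with a cell viability assay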
# Description: SANGER: Inhibition of human LAMA-84 cell growth in a cell viability assay.
# [17] = tested on: 769-P; format: functional, cell-based, Homo sapiens
# Description: SANGER: Inhibition of human 769-P cell growth in a cell viability assay.
# [18] = tested on: BV-173; format: functional, cell-based; conditions: Homo sapiens
# Description: SANGER: Inhibition of human BV-173 cell growth in a cell viability assay.
# [19] = tested on: GT3TKB; format: functional, cell-based, Homo sapiens;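 note: growth inhibition of the cell line, read out with a cell viability assay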
# Description: SANGER: Inhibition of human GT3TKB cell growth in a cell viability assay.
# [20] = tested on: TK-10; format: functional, cell-based, Homo sapiens;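 note: growth inhibition of TK-10 cells, read out in a cell viability assay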
# Description: SANGER: Inhibition of human TK10 cell growth in a cell viability assay.
# [21] = tested on: VM-CUB-1; format: functional, cell-based; conditions: Homo sapiens;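 note: cell viability assay measuring growth inhibition of the human VM-CUB-1 cell line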
# Description: SANGER: Inhibition of human VM-CUB-1 cell growth in a cell viability assay.
# [22] = tested on: SK-MEL-28; format: functional, cell-based; conditions: Homo sapiens;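 note: growth inhibition of human SK-MEL-28 cells, read out with a cell viability assay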
# Description: SANGER: Inhibition of human SK-MEL-28 cell growth in a cell viability assay.
# [23] = tested on: SAOS-2; format: functional, cell-based, Homo sapiens;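 note: growth inhibition of human Saos-2 cells determined by a cell viability assay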
# Description: SANGER: Inhibition of human Saos-2 cell growth in a cell viability assay.
# [24] = tested on: BHT-101; format: functional, cell-based, Homo sapiens
# Description: SANGER: Inhibition of human BHT-101 cell growth in a cell viability assay.
# [25] = tested on: D-502MG; format: functional, cell-based, Homo sapiens
# Description: SANGER: Inhibition of human D-502MG cell growth in a cell viability assay.
# [26] = tested on: PANC-03-27; format: functional, cell-based, Homo sapiens
# Description: SANGER: Inhibition of human PANC-03-27 cell growth in a cell viability assay.
# [27] = tested on: COLO-792; format: functional, cell-based, Homo sapiens
# Description: SANGER: Inhibition of human COLO-792 cell growth in a cell viability assay.
# [28] = tested on: PC-14; format: functional, cell-based, Homo sapiens;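 note: cell viability assay measuring inhibition of PC-14 cell growth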
# Description: SANGER: Inhibition of human PC-14 cell growth in a cell viability assay.
# [29] = tested on: HD-MY-Z; format: functional, cell-based, Homo sapiens;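 note: growth inhibition of HD-MY-Z cells, read out with a cell viability assay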
# Description: SANGER: Inhibition of human HD-MY-Z cell growth in a cell viability assay.
# [30] = tested on: NB13; format: functional, cell-based, Homo sapiens;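 note: cell viability readout measuring growth inhibition of human NB13 cells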
# Description: SANGER: Inhibition of human NB13 cell growth in a cell viability assay.
# [31] = tested on: MHH-ES-1; format: functional, cell-based, Homo sapiens;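 note: cell growth inhibition measured by a cell viability assay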
# Description: SANGER: Inhibition of human MHH-ES-1 cell growth in a cell viability assay.
# [32] = tested on: LAN-6; format: functional, cell-based, Homo sapiens;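 note: growth inhibition of LAN-6 cells, determined with a cell viability assay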
# Description: SANGER: Inhibition of human LAN-6 cell growth in a cell viability assay.
# [33] = tested on: CP50-MEL-B; format: functional, cell-based, Homo sapiens;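 note: growth inhibition of the human cell line, measured with a cell viability read-out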
# Description: SANGER: Inhibition of human CP50-MEL-B cell growth in a cell viability assay.
# [34] = tested on: CAL-12T; format: functional, cell-based, Homo sapiens;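 note: growth inhibition of human CAL-12T cells, read out with a cell viability assay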
# Description: SANGER: Inhibition of human CAL-12T cell growth in a cell viability assay.
# [35] = tested on: LXF-289 cell line; format: functional, cell-based, Homo sapiens
# Description: SANGER: Inhibition of human LXF-289 cell growth in a cell viability assay.
# [36] = tested on: KYSE-180; format: functional, cell-based, Homo sapiens;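 note: growth inhibition of KYSE-180 cells, read out with a cell viability assay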
# Description: SANGER: Inhibition of human KYSE-180 cell growth in a cell viability assay.
# [37] = tested on: A-427; format: functional, cell-based, Homo sapiens;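 note: growth inhibition of human A-427 cells, read out by a cell viability assay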
# Description: SANGER: Inhibition of human A427 cell growth in a cell viability assay.
# [38] = tested on: J-RT3-T3-5; format: functional, cell-based; conditions: Homo sapiens;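 note: cell viability assay measuring growth inhibition of human J-RT3-T3-5 cells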
# Description: SANGER: Inhibition of human J-RT3-T3-5 cell growth in a cell viability assay.
# [39] = tested on: NCI-H28; format: functional, cell-based, Homo sapiens;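 note: growth inhibition of human NCI-H28 cells, read out as cell viability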
# Description: SANGER: Inhibition of human NCI-H28 cell growth in a cell viability assay.
# [40] = tested on: SNU-C2B; format: functional, cell-based, Homo sapiens;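 note: cell viability readout used to measure compound-driven suppression of SNU-C2B cell proliferation, IC50 marking half-maximal growth inhibition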
# Description: SANGER: Inhibition of human SNU-C2B cell growth in a cell viability assay.
# [41] = tested on: HSC-2; format: functional, cell-based, Homo sapiens;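 note: growth inhibition of human HSC-2 cells, read out by a cell viability assay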
# Description: SANGER: Inhibition of human HSC-2 cell growth in a cell viability assay.
# [42] = tested on: COLO-678; format: functional, cell-based, Homo sapiens
# Description: SANGER: Inhibition of human COLO-678 cell growth in a cell viability assay.
# [43] = tested on: CGTH-W-1; format: functional, cell-based, Homo sapiens;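 note: growth inhibition of human CGTH-W-1 cells measured by cell viability assay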
# Description: SANGER: Inhibition of human CGTH-W-1 cell growth in a cell viability assay.
# [44] = tested on: C2BBe1; format: functional, cell-based, Homo sapiens;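 note: growth inhibition of C2BBe1 cells, read out through a viability assay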
# Description: SANGER: Inhibition of human C2BBe1 cell growth in a cell viability assay.
# [45] = tested on: KNS-42; format: functional, cell-based, Homo sapiens;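 note: growth inhibition of KNS-42 cells, read out with a cell viability assay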
# Description: SANGER: Inhibition of human KNS-42 cell growth in a cell viability assay.
# [46] = tested on: LU-99A; format: functional, cell-based, Homo sapiens;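 note: growth inhibition of LU-99A cells, read out with a cell viability assay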
# Description: SANGER: Inhibition of human LU-99A cell growth in a cell viability assay.
# [47] = tested on: CTB-1; format: functional, cell-based; conditions: Homo sapiens
# Description: SANGER: Inhibition of human CTB-1 cell growth in a cell viability assay.
# [48] = tested on: YKG-1; format: functional, cell-based, Homo sapiens;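 note: cell growth inhibition, read out with a viability assay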
# Description: SANGER: Inhibition of human YKG-1 cell growth in a cell viability assay.
# [49] = tested on: NCI-H2170; format: functional, cell-based, Homo sapiens;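 note: cell viability assay measuring growth inhibition of human NCI-H2170 cancer cells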
# Description: SANGER: Inhibition of human NCI-H2170 cell growth in a cell viability assay.
# [50] = tested on: SHP77; format: functional, cell-based, Homo sapiens, SHP-77;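 note: growth inhibition of human SHP-77 cells measured by a cell viability assay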
# Description: SANGER: Inhibition of human SHP-77 cell growth in a cell viability assay.
# [51] = tested on: J82; format: functional, cell-based; conditions: Homo sapiens;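 note: growth inhibition of J82 cells, read out with a cell viability assay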
# Description: SANGER: Inhibition of human J82 cell growth in a cell viability assay.
smiles,measurement,setting,value
Cc1cc([C@@H](C)Nc2ccccc2C(=O)O)c2nc(N3CCOCC3)cc(=O)n2c1 [AZD-6482],IC50,"[1]; Homo sapiens, BB30-HNC",4.89 µM
same,IC50,[1]; bb30-hnc,> 5.12 µM
same,IC50,[2]; colo-680n,> 5.12 µM
same,IC50,"[3]; Homo sapiens, A204",> 5.12 µM
same,IC50,[3]; a204,2.77 µM
same,IC50,[4]; djm-1,> 5.12 µM
same,IC50,[5],> 5.12 µM
same,IC50,"[6]; Homo sapiens, BPH-1",4.9 µM
same,IC50,[6]; bph-1,4.3 µM
same,IC50,[7]; nci-h1623,> 5.12 µM and 3.13 µM
same,IC50,[8]; ht-29,> 5.12 µM
same,IC50,[9]; calu-6,> 5.12 µM
same,IC50,[10],> 5.12 µM
same,IC50,"[11]; Homo sapiens, LN-405",2.44 µM
same,IC50,[11]; ln-405,2.9 µM
same,IC50,[12]; gak,> 5.12 µM
same,IC50,[13],> 5.12 µM
same,IC50,[14]; nci-h2122,> 5.12 µM
same,IC50,[15]; te-9,> 5.12 µM
same,IC50,[16],> 5.12 µM
same,IC50,[17]; 769-p,> 5.12 µM
same,IC50,[18],> 5.12 µM
same,IC50,[19]; gt3tkb,> 5.12 µM
same,IC50,[20]; tk-10,> 5.12 µM
same,IC50,[21],> 5.12 µM
same,IC50,[22],> 5.12 µM
same,IC50,"[23]; Homo sapiens, SAOS-2",> 5.12 µM
same,IC50,[23]; saos-2,> 5.12 µM
same,IC50,[24]; bht-101,> 5.12 µM and 1.16 µM
same,IC50,[25]; d-502mg,> 5.12 µM
same,IC50,"[26]; Homo sapiens, PANC-03-27",> 5.12 µM
same,IC50,[26]; panc-03-27,4.4 µM
same,IC50,[27]; colo-792,> 5.12 µM
same,IC50,[28]; pc-14,> 5.12 µM
same,IC50,[29]; hd-my-z,> 5.12 µM
same,IC50,"[30]; Homo sapiens, NB13",> 5.12 µM
same,IC50,[30]; nb13,> 5.12 µM
same,IC50,[31]; mhh-es-1,> 5.12 µM
same,IC50,[32]; lan-6,> 5.12 µM
same,IC50,[33]; cp50-mel-b,> 5.12 µM
same,IC50,[34]; cal-12t,> 5.12 µM
same,IC50,[35]; lxf-289,1.55 µM and 4.06 µM
same,IC50,[36]; kyse-180,> 5.12 µM
same,IC50,[37]; a-427,0.995 µM and > 5.12 µM
same,IC50,[38],> 5.12 µM
same,IC50,[39]; nci-h28,> 5.12 µM
same,IC50,"[40]; Homo sapiens, SNU-C2B",> 5.12 µM
same,IC50,[40]; snu-c2b,> 5.12 µM
same,IC50,"[41]; Homo sapiens, HSC-2",1.76 µM
same,IC50,[41]; hsc-2,1.14 µM
same,IC50,[42]; colo-678,> 5.12 µM
same,IC50,[43]; cgth-w-1,> 5.12 µM
same,IC50,"[44]; Homo sapiens, C2BBe1",> 5.12 µM
same,IC50,[44]; c2bbe1,> 5.12 µM
same,IC50,[45]; kns-42,> 5.12 µM
same,IC50,[46]; lu-99a,> 5.12 µM
same,IC50,[47],> 5.12 µM
same,IC50,"[48]; Homo sapiens, YKG-1",> 5.12 µM
same,IC50,[48]; ykg-1,> 5.12 µM
same,IC50,[49]; nci-h2170,> 5.12 µM
same,IC50,[50]; shp-77,> 5.12 µM
O=c1cc(-c2cccc3c2Sc2ccccc2S3)oc(N2CCOCC2)c1 [KU-55933],IC50,"[1]; Homo sapiens, BB30-HNC",> 10 µM
same,IC50,"[2]; Homo sapiens, COLO-680N",> 10 µM
same,IC50,"[3]; Homo sapiens, A204",> 10 µM
same,IC50,"[4]; Homo sapiens, DJM-1",> 10 µM
same,IC50,[5],> 10 µM
same,IC50,[51],> 10 µM
same,IC50,"[6]; Homo sapiens, BPH-1",> 10 µM
same,IC50,"[7]; Homo sapiens, NCI-H1623",> 10 µM
same,IC50,"[8]; Homo sapiens, HT-29",> 10 µM
same,IC50,"[9]; Homo sapiens, Calu-6",> 10 µM
same,IC50,[10],> 10 µM
same,IC50,"[11]; Homo sapiens, LN-405",> 10 µM
same,IC50,"[12]; Homo sapiens, GAK",> 10 µM
same,IC50,"[14]; Homo sapiens, NCI-H2122",> 10 µM
same,IC50,"[15]; Homo sapiens, TE-9",> 10 µM
same,IC50,[16],4.58 µM
same,IC50,"[17]; Homo sapiens, 769-P",> 10 µM
same,IC50,"[19]; Homo sapiens, GT3TKB",> 10 µM
same,IC50,"[20]; Homo sapiens, TK-10",> 10 µM
same,IC50,[21],> 10 µM
same,IC50,[22],> 10 µM
same,IC50,"[23]; Homo sapiens, SAOS-2",> 10 µM
same,IC50,"[24]; Homo sapiens, BHT-101",> 10 µM
same,IC50,"[25]; Homo sapiens, D-502MG",> 10 µM
same,IC50,"[26]; Homo sapiens, PANC-03-27",> 10 µM
same,IC50,"[27]; Homo sapiens, COLO-792",> 10 µM
same,IC50,"[28]; Homo sapiens, PC-14",> 10 µM
same,IC50,"[29]; Homo sapiens, HD-MY-Z",> 10 µM
same,IC50,"[30]; Homo sapiens, NB13",> 10 µM
same,IC50,"[31]; Homo sapiens, MHH-ES-1",> 10 µM
same,IC50,"[32]; Homo sapiens, LAN-6",> 10 µM
same,IC50,"[33]; Homo sapiens, CP50-MEL-B",> 10 µM
same,IC50,"[34]; Homo sapiens, CAL-12T",> 10 µM
same,IC50,"[35]; Homo sapiens, LXF-289",> 10 µM
same,IC50,"[36]; Homo sapiens, KYSE-180",> 10 µM
same,IC50,"[37]; Homo sapiens, A-427",> 10 µM
same,IC50,[38],> 10 µM
same,IC50,"[39]; Homo sapiens, NCI-H28",> 10 µM
same,IC50,"[40]; Homo sapiens, SNU-C2B",> 10 µM
same,IC50,"[41]; Homo sapiens, HSC-2",> 10 µM
same,IC50,"[42]; Homo sapiens, COLO-678",> 10 µM
same,IC50,"[43]; Homo sapiens, CGTH-W-1",> 10 µM
same,IC50,"[44]; Homo sapiens, C2BBe1",> 10 µM
same,IC50,"[45]; Homo sapiens, KNS-42",> 10 µM
same,IC50,"[46]; Homo sapiens, LU-99A",> 10 µM
same,IC50,[47],> 10 µM
same,IC50,"[48]; Homo sapiens, YKG-1",> 10 µM
same,IC50,"[49]; Homo sapiens, NCI-H2170",> 10 µM
same,IC50,"[50]; Homo sapiens, SHP77",> 10 µM
